From PMC7699256, “In Silico Analysis and In Vitro Characterization of the Bioactive Profile of Three Novel Peptides Identified from 19 kDa α-Zein Sequences of Maize” (Molecules, 2020)
Like-named read-outs stand apart in the source and are kept apart here. No end group written: not given here.

Target: T1, angiotensin-converting enzyme (ACE) (Homo sapiens, UniProt P12821)
T1 construct: purchased Sigma-Aldrich CS0002
Assay: ACE inhibition assay (ACE Activity Assay kit, fluorogenic substrate)
Format: biochemical
Procedure: ACE inhibitory activity was evaluated using the ACE Activity Assay test (Sigma-Aldrich CS0002, Saint Louis, MI, USA). This assay is based on the hydrolysis of angiotensin I by ACE to yield active angiotensin II. This test uses a synthetic fluorogenic peptide as the substrate, and the resulting fluorescence is proportional to ACE activity. Briefly, all reagents were diluted in the assay buffer, according to the manufacturer’s instructions. A total of 10 µL of peptide sample and positive control (captopril PHR1307, Sigma-Aldrich, Saint Louis, MI, USA), diluted in assay buffer at five different concentrations, and negative control (assay buffer) were pipetted into the wells of a 96-well black opaque plate. Then, 40 µL of ACE, provided in the kit, was added to sample and control wells. Sample blanks consisted of 50 µL of assay buffer. A standard curve was prepared in 100 µL assay buffer per well ranging from 0 to 8 nmol for calculating enzymatic activity. Subsequently, 50 µL of fluorogenic substrate warmed to 37 °C was added to experimental, control and blank sample wells. The reaction was carried out at 37 °C and fluorescence was read every minute for 5 min in a microplate reader (Biotek Synergy HTX, Winooski, VT, USA). The absorbance of excitation and emission were set at 320 nm and 405 nm, respectively. All determinations were done in duplicate. Linear regressions were determined to calculate the enzymatic activity for each sample dose.
One unit is defined as the amount of enzyme that releases one nmol of fluorescent substrate in 1 min at 37 °C. The results were expressed as milliunits of enzyme (mU). Finally, the IC50 of each peptide sample and captopril was determined using regression analysis of the corresponding dose–response curves. […] This value was expressed as µM.

[1] = fluorogenic substrate, 37 °C, fluorescence (ex 320/em 405 nm) every minute for 5 min, five concentrations, value ± SD, n = 2, read-out: IC50 for ACE inhibition
[2] = own IC50 values converted to mg/mL for comparison with the literature, read-out: IC50 for ACE inhibition expressed in mg/mL (converted)

T1 sequence (P12821 30-1306, species assumed): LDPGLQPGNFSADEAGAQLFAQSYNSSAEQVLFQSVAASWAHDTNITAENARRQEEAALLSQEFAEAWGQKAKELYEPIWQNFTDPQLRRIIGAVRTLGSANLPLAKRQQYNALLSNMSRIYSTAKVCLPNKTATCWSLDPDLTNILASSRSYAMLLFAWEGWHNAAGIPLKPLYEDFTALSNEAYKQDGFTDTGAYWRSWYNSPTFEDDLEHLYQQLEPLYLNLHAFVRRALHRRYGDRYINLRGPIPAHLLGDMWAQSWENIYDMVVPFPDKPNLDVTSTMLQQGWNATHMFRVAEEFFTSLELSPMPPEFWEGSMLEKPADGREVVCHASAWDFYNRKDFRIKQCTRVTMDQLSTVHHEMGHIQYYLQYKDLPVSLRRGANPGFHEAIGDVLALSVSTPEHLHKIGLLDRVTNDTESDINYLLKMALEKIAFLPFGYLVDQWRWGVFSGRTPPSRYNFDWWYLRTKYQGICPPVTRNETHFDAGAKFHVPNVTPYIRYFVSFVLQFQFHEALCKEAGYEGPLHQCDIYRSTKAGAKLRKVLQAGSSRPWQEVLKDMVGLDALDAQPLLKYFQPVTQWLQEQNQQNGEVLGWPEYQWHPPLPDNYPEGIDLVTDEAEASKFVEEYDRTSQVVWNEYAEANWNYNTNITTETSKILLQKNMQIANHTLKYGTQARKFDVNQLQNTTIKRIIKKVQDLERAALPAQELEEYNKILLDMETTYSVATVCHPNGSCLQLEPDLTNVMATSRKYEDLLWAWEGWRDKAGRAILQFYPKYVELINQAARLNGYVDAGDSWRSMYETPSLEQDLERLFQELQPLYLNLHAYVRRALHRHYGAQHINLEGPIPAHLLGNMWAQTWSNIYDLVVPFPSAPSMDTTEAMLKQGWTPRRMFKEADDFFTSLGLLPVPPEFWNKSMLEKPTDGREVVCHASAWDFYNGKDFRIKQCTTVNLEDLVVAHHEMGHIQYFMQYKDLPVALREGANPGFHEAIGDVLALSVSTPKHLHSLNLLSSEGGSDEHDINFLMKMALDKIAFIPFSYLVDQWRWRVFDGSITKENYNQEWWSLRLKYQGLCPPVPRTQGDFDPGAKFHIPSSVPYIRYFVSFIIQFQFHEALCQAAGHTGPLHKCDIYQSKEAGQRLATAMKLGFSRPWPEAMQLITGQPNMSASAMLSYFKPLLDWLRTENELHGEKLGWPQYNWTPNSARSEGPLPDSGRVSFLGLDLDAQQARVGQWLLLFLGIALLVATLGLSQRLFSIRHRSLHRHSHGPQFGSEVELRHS

AYLQAQQLLPFNQLVRSPAA-NH2 [19ZP3]
IC50 [1]: 202 ± 0.63 µM
IC50 [2]: 202 µM

FNQLAALNSAAYLQQQQLLPFSQLA-NH2 [19ZP1]
IC50 [1]: 14.19 ± 0.12 µM
IC50 [2]: 14.4 µM

QLADVSPAAFLTQQQLLPFYLHAM-NH2 [19ZP2]
IC50 [1]: 174 ± 49.6 µM
IC50 [2]: 174 µM
